Assay results reported in US5151502A, “Method for solubilizing membrane receptor proteins” (E. R. Squibb & Sons, Inc., priority 1991, dated 1992).
Blank lines part the entries; values can stand above or below the compound they belong to.

Legend:
[1] = system: AII receptor; assay: Recovery of solubilized [125I]-SI-AII binding activity from BAMM; set-up: species or system bovine; details: DTNB 0.1 mM added to BAMM before solubilization; means ± standard errors, n = 4
Experimental: (§1) All procedures were performed at 4° C. unless otherwise noted. Solubilization of specific binding activity was carried out by incubation of BAMM with 5 mM CHAPS. […] The solubilized membranes were centrifuged at 176,000×g (50,000 rpm in a Beckman 80Ti rotor) for 1 hour. The soluble BAMM preparation was stored at […] Prior to assay, soluble BAMM protein was filtered through a 0.22 μm filter and treated with SM2 beads. SM2 treatment proceeded with the addition of 1.1 g (w/v) of the beads and incubation for 1 to 2 hours with constant rotation. The beads were, removed under air pressure. Residual beads were removed from solution by microcentrifugation at 11,000×g (14,000 rpm.) for 15 minutes.
Assays were conducted in 1.2 ml tubes in a total assay volume of 200 μl. […] Filters were counted in a RIASTAT gamma counter or washed twice, microwave-dried, and counted in a Pharmacia 1205 Beta Plate flatbed scintillation counter in the presence of a dry scintillant (Pharmacia MeltiLex Scintillator Sheets™). Dissociation constants and slope factors were calculated according to Cheng and Prusoff (Biochem. Pharmacol. 22, 3099-3109; 1973) and Hill (J. Physiol. 40, 109-224; 1910), respectively. analysis of saturation binding data was performed using nonlinear regression least-square curve fitting to the nontransformed data or by Scathard transformation (Ann. N.Y.Acad. Sci., 51, 660672;1949).

[2] = target: T1, soluble AII receptor (Bos taurus, UniProt P25104); assay: [125I]-SI-AII radioligand binding, CHAPS-solubilized SM2-treated BAMM; set-up: species or system bovine; details: for Inhibition of [125I]-SI-AII binding (in words): competition experiments
T1 construct: from tissue; host or cells: bovine adrenal microsomal membranes, solubilized with CHAPS and treated with SM2 beads
T1 sequence (P25104 1-359): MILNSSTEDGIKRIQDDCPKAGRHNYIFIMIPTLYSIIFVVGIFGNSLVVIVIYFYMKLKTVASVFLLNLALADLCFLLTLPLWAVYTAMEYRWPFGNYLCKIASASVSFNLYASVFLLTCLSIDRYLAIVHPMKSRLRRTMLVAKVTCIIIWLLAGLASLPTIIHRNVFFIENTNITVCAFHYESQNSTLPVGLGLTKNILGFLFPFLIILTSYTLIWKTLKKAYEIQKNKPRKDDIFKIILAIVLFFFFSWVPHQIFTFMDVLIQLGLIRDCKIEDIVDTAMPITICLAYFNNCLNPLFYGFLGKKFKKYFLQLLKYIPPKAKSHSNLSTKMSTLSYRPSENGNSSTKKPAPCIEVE
Experimental: as §1
Assays were conducted in 1.2 ml tubes in a total assay volume of 200 μl. The incubation mixture contained 0.1 to 0.2 nM [^125 I]-SI-AII and incubation buffer (50 mM Tris, pH 7.4 at 4° C., 150 mM sodium chloride, 0.1% bovine serum albumin, 0.24 TI units/ml aprotinin, 0.1 mg/ml 1,10-phenanthroline). The binding reaction was initiated by the addition of 20 to 100 μg of BAMM or soluble BAMM diluted in incubation buffer. Binding proceeded at 37° C. for 2 hours with constant agitation. Reactions were terminated and bound and free radioligand separated by rapid filtration over double-thickness glass-fiber filters which had been presoaked in 0.3% polyethyleneimine in 50 mM Tris (pH 7.4) utilizing a Tomtec™96-well cell harvester set at four pulse washes. Filters were counted in a RIASTAT gamma counter or washed twice, microwave-dried, and counted in a Pharmacia 1205 Beta Plate flatbed scintillation counter in the presence of a dry scintillant (Pharmacia MeltiLex Scintillator Sheets™). Dissociation constants and slope factors were calculated according to Cheng and Prusoff (Biochem. Pharmacol. 22, 3099-3109; 1973) and Hill (J. Physiol. 40, 109-224; 1910), respectively. analysis of saturation binding data was performed using nonlinear regression least-square curve fitting to the nontransformed data or by Scathard transformation (Ann. N.Y.Acad. Sci., 51, 660672;1949).

[3] = target: T2, membrane AII receptor (Bos taurus, UniProt P25104); assay: [125I]-SI-AII radioligand binding, bovine adrenal microsomal membranes (BAMM)
T2 construct: Aliquots (5 mg/ml) of the bovine adrenal microsomal membranes (BAMM) were stored; from tissue; host or cells: bovine adrenal, microsomal membranes
T2 sequence (P25104 1-359): T1 sequence (P25104 1-359)
Experimental: All the procedures were performed at 4° C. unless otherwise indicated. Bovine adrenals were cleaned of connective tissue and fat and were minced in 10 volumes of homogenization buffer (10 mM Tris, pH 7.4 at 4° C. containing 0.25M sucrose and 1 mM ethylenediaminetetraacetic acid). The minced tissue was homogenized using a Brinkmann polytron homogenizer (five ten second bursts at setting #8). The homogenate was centrifuged at 3,000×g (5,000 rpm) in a Sorvall SS34 rotor) for 10 minutes and the supernatant filtered through 3 layers of cheesecloth. The filtrate was centrifuged at 12,000×g (10,000 rpm in a Sorvall SS34 rotor) for 15 minutes. […]

% recovery of solubilized AII receptor [1]: 11.5 ± 1.5%
Structure (SMILES): O=C(O)c1cc(SSc2ccc([N+](=O)[O-])c(C(=O)O)c2)ccc1[N+](=O)[O-] [DTNB, dithionitrobenzoic acid]

inhibition at 5000 µM [2]: ~90% | IC50 ([2]; read-out: DTT concentration giving 50% reduction in ligand activity): 500 to 1000 µM
Structure (SMILES): O[C@H](CS)[C@H](O)CS (racemic) [DTT, dithiothreitol]

Inhibition of [125I]-SI-AII binding (in words) ([2]; SM2-treated soluble receptors): negligible | Ki ([2]; SM2-treated soluble receptors, read-out: inhibition constant): > 100 µM
Structure (SMILES): Cc1cc(Cn2cnc3c2CC(C(=O)O)N(C(=O)C(c2ccccc2)c2ccccc2)C3)ccc1N (stereo not shown) [PD123177]

Kd [3]: 0.202 ± 0.022 µM | Slope Factor ([3]; BAMM, means ± SEM, n = 3 to 5): 0.91 ± 0.03 | Kd [2]: 2.54 µM | Inhibition of [125I]-SI-AII binding (in words) ([2]; SM2-treated soluble receptors): complete | Slope Factor ([2]; Soluble preparation, means ± SEM, n = 3 to 5): 0.51 ± 0.05
Structure (SMILES): CCCCc1nc(Cl)c(CO)n1Cc1ccc(-c2ccccc2-c2nn[nH]n2)cc1 [DuP 753]
